Source: ChEMBL document CHEMBL1201862, “PubChem BioAssay data set” (2004)
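Exposure lasted 48 hours, with cells grown in 96-well plates and compounds tested at five concentrations. GI50 = concentration required for 50% inhibition of growth.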 Active and inactive are the calls of the source. Rule as the data show it: active = GI50 up to about 1.1 µM and inactive = higher.

Assays:
Experiment in all cases: NCI tumour cell line growth inhibition, 48 h
SNB-19 = test system: SNB-19
IGROV-1 = test system: IGROV-1
HCT-116 = test system: HCT-116
UO-31 = test system: UO-31
SW-620 = test system: SW-620
COLO 205 = test system: COLO 205
A549 = test system: A549
MDA-N = test system: MDA-N
NCI-H226 = test system: NCI-H226
M14 = test system: M14
SK-OV-3 = test system: SK-OV-3
PC-3 = test system: PC-3
KM12 = test system: KM12
UACC-62 = test system: UACC-62
ACHN = test system: ACHN
TK-10 = test system: TK-10
Malme-3M = test system: Malme-3M
CAKI-1 = test system: CAKI-1
MDA-MB-435 = test system: MDA-MB-435
Hs-578T = test system: Hs-578T

Structure (SMILES) | GI50 (SNB-19) | GI50 (IGROV-1) | GI50 (HCT-116) | GI50 (UO-31) | GI50 (SW-620) | GI50 (COLO 205) | GI50 (A549) | GI50 (MDA-N) | GI50 (NCI-H226) | GI50 (M14) | GI50 (SK-OV-3) | GI50 (PC-3) | GI50 (KM12) | GI50 (UACC-62) | GI50 (ACHN) | GI50 (TK-10) | GI50 (Malme-3M) | GI50 (CAKI-1) | GI50 (MDA-MB-435) | GI50 (Hs-578T)
COc1ccc2nc3n(c2c1)C(=O)c1ccccc1-3 | > 100 µM (inactive) | > 100 µM (inactive) | > 100 µM (inactive) | > 100 µM (inactive) | > 100 µM (inactive) | > 100 µM (inactive) | > 100 µM (inactive) | > 100 µM (inactive) | > 100 µM (inactive) | > 100 µM (inactive) | 15.1 µM (inactive) | > 100 µM (inactive) | > 100 µM (inactive) | > 100 µM (inactive) | > 100 µM (inactive) | > 100 µM (inactive) | > 100 µM (inactive) | > 100 µM (inactive) | – | –
Cc1cc(S(=O)(=O)/N=C2\NCCN2Cc2ccccc2)c(S)cc1Cl | > 100 µM (inactive) | > 100 µM (inactive) | > 100 µM (inactive) | – | > 100 µM (inactive) | > 100 µM (inactive) | > 100 µM (inactive) | > 100 µM (inactive) | 61.2 µM (inactive) | > 100 µM (inactive) | > 100 µM (inactive) | > 100 µM (inactive) | > 100 µM (inactive) | 72.1 µM (inactive) | > 100 µM (inactive) | > 100 µM (inactive) | 43.7 µM (inactive) | > 100 µM (inactive) | > 100 µM (inactive) | –
[N-]=[N+]=Nc1c(Cc2ccccc2)c(=O)oc2ccccc12 | 27.2 µM (inactive) | 21.5 µM (inactive) | > 10 µM (inactive) | 36.1 µM (inactive) | 14.8 µM (inactive) | 36.9 µM (inactive) | 32.5 µM (inactive) | – | – | 25.5 µM (inactive) | 32.1 µM (inactive) | 22.9 µM (inactive) | – | > 10 µM (inactive) | 38.2 µM (inactive) | 28.2 µM (inactive) | 38.3 µM (inactive) | 23.8 µM (inactive) | 22.3 µM (inactive) | 19.1 µM (inactive)
Cc1nc2ccccc2n1Cc1nnc(N)o1 | > 100 µM (inactive) | > 100 µM (inactive) | > 100 µM (inactive) | > 100 µM (inactive) | > 100 µM (inactive) | > 100 µM (inactive) | 53.3 µM (inactive) | > 100 µM (inactive) | – | > 100 µM (inactive) | > 100 µM (inactive) | > 100 µM (inactive) | > 100 µM (inactive) | > 100 µM (inactive) | > 100 µM (inactive) | > 100 µM (inactive) | > 100 µM (inactive) | – | 0.1 µM (active) | > 100 µM (inactive)
CN(C)c1ccc(/C=C2\C[N+](C)(C)C/C(=C\c3ccc(N(C)C)cc3)C2=O)cc1 | 17.5 µM (inactive) | 8.57 µM (inactive) | 8.93 µM (inactive) | > 100 µM (inactive) | 15.3 µM (inactive) | 2.61 µM (inactive) | 20.7 µM (inactive) | – | 30.5 µM (inactive) | 20.3 µM (inactive) | 26.7 µM (inactive) | – | 6.14 µM (inactive) | 13.6 µM (inactive) | 70.5 µM (inactive) | 78.7 µM (inactive) | 22.1 µM (inactive) | > 100 µM (inactive) | 12.1 µM (inactive) | 50 µM (inactive)
COC(=O)c1c(OC)cc2cc3c(c(O)c2c1C)C(=O)C1(O)C(=O)C=C(OC)C(OC(=O)CC(C)N)=C1C3=O (stereo not drawn) | 6.41 µM (inactive) | 13.6 µM (inactive) | 4.28 µM (inactive) | 18.7 µM (inactive) | 37.7 µM (inactive) | > 100 µM (inactive) | 18.6 µM (inactive) | > 100 µM (inactive) | – | 32.7 µM (inactive) | – | 20.9 µM (inactive) | 5.64 µM (inactive) | 17.1 µM (inactive) | 8.65 µM (inactive) | 22.1 µM (inactive) | – | 14.2 µM (inactive) | 41.2 µM (inactive) | 7.52 µM (inactive)
CC1(C)N=C(Oc2ccccc2)n2nccc2N1 | > 100 µM (inactive) | > 100 µM (inactive) | 51.9 µM (inactive) | > 100 µM (inactive) | > 100 µM (inactive) | 87.1 µM (inactive) | > 100 µM (inactive) | – | > 100 µM (inactive) | 73.1 µM (inactive) | > 100 µM (inactive) | – | > 100 µM (inactive) | 63.4 µM (inactive) | > 100 µM (inactive) | > 100 µM (inactive) | > 100 µM (inactive) | > 100 µM (inactive) | – | –
CCSC(=O)/C=C1\CN(C(=O)OC(C)(C)C)C1C(=O)OC(C)(C)C (stereo not drawn) | 12.1 µM (inactive) | 4.28 µM (inactive) | 1.55 µM (inactive) | 5.41 µM (inactive) | 2.07 µM (inactive) | 2.02 µM (inactive) | 12.1 µM (inactive) | – | 12.7 µM (inactive) | 1.77 µM (inactive) | 13.8 µM (inactive) | 4.94 µM (inactive) | 3.38 µM (inactive) | 3.2 µM (inactive) | 3.63 µM (inactive) | 2.59 µM (inactive) | 1.95 µM (inactive) | 6.56 µM (inactive) | 2.74 µM (inactive) | 4.17 µM (inactive)
O=C(CSc1nc2ccc(I)cc2c(=O)n1Cc1ccccc1)NN1C(=O)CCC1=O | 85.3 µM (inactive) | 29.9 µM (inactive) | 43.3 µM (inactive) | – | 75.2 µM (inactive) | 34 µM (inactive) | 49.4 µM (inactive) | 83.4 µM (inactive) | 27.3 µM (inactive) | 79.8 µM (inactive) | 52 µM (inactive) | 30.1 µM (inactive) | 37.2 µM (inactive) | 55.7 µM (inactive) | 18.2 µM (inactive) | 84.5 µM (inactive) | – | 1.65 µM (inactive) | 64.1 µM (inactive) | –
Oc1c2cc(Cl)cc1COCc1cc(Cl)cc(c1O)COCc1cc(Cl)cc(c1O)COC2 | 28 µM (inactive) | 17 µM (inactive) | 8.13 µM (inactive) | 32.6 µM (inactive) | > 100 µM (inactive) | 89.5 µM (inactive) | 34.8 µM (inactive) | – | 30.5 µM (inactive) | 18.7 µM (inactive) | 59.6 µM (inactive) | > 100 µM (inactive) | 84.3 µM (inactive) | 56.5 µM (inactive) | > 100 µM (inactive) | 46.8 µM (inactive) | – | – | 40.7 µM (inactive) | –
Cc1ccc(C2SCC(=O)N2NC(=O)c2ccncc2)s1 (stereo not drawn) | > 100 µM (inactive) | > 100 µM (inactive) | > 100 µM (inactive) | > 100 µM (inactive) | > 100 µM (inactive) | > 100 µM (inactive) | > 100 µM (inactive) | > 100 µM (inactive) | > 100 µM (inactive) | > 100 µM (inactive) | > 100 µM (inactive) | > 100 µM (inactive) | > 100 µM (inactive) | > 100 µM (inactive) | > 100 µM (inactive) | > 100 µM (inactive) | > 100 µM (inactive) | > 100 µM (inactive) | > 100 µM (inactive) | –
